# Data: US9833497B2, “Human originated EGF domain proteins and use of the same” (CHENGDU SOURCEBIO LIMITED-LIABILITY COMPANY, priority 2013, dated 2017)
# Legend:
# Format in all cases: cell-based
# E. coli DH5α = assay: Antibacterial activity: MIC and growth curve against E. coli DH5α in 96-well plate; conditions: minimal inhibitory concentration against E. coli DH5α; 96-well plate, 5×10^5 CFU/mL, 37° C., judged after 8 h
# Procedure, shortened: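 MIC taken as lowest protein level with no bacterial growth, tracked by A600 every 30 min during 37 °C, 175 rpm culture. Two-fold protein series 50-12.5 μg/mL final, triplicate wells, against 5×10^5 CFU/mL of LB-washed mid-log cells.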
# Moraxella catarrhalis = assay: MIC against Gram-negative bacteria: Moraxella catarrhalis; conditions: 5×10^5 CFU/mL
# Procedure, shortened: (§1)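 Purified recombinant human EGF domain proteins are tested by broth dilution in LB against a 5×10^5 CFU/mL inoculum, with two-fold serial dilutions run in triplicate. Plates are incubated at 37° C with shaking, and the MIC is read as the lowest protein concentration without growth.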
# Aeromonas hydrophila = assay: MIC against Gram-negative bacteria: Aeromonas hydrophila; conditions: 5×10^5 CFU/mL
# Procedure, shortened: as §1
# Klebsiella pneumonia = assay: MIC against Gram-negative bacteria: Klebsiella pneumonia; conditions: 5×10^5 CFU/mL
# Procedure, shortened: as §1
# Proteus vulgaris = assay: MIC against Gram-negative bacteria: Proteus vulgaris; conditions: 5×10^5 CFU/mL
# Procedure, shortened: as §1
# Enterobacter cloacae = assay: MIC against Gram-negative bacteria: Enterobacter cloacae; conditions: 5×10^5 CFU/mL
# Procedure, shortened: as §1
# Serratia marcescens = assay: MIC against Gram-negative bacteria: Serratia marcescens; conditions: 5×10^5 CFU/mL
# Procedure, shortened: as §1
# Pseudomonas aeruginosa = assay: MIC against Gram-negative bacteria: Pseudomonas aeruginosa; conditions: 5×10^5 CFU/mL
# Procedure, shortened: as §1
# Citrobacter diversus = assay: MIC against Gram-negative bacteria: Citrobacter diversus; conditions: 5×10^5 CFU/mL
# Procedure, shortened: as §1
# Proteus mirabilis = assay: MIC against Gram-negative bacteria: Proteus mirabilis; conditions: 5×10^5 CFU/mL
# Procedure, shortened: as §1
# E. coli BL21 = assay: MIC against Gram-negative bacteria: E. coli BL21; conditions: 5×10^5 CFU/mL
# Procedure, shortened: as §1
# [1] = M. catarrhalis, 10 h cultivation at 37° C.
# [2] = A. hydrophila, 10 h cultivation at 37° C.
# [3] = K. pneumonia, 10 h cultivation at 37° C.
# [4] = P. vulgaris, 10 h cultivation at 37° C.
# [5] = E. cloacae, 10 h cultivation at 37° C.
# [6] = S. marcescens, 10 h cultivation at 37° C.
# [7] = P. aeruginosa, 10 h cultivation at 37° C.
# [8] = C. diversus, 10 h cultivation at 37° C.
# [9] = P. mirabilis, 10 h cultivation at 37° C.
# [10] = E. coli BL21, 10 h cultivation at 37° C.
# [11] = Moraxella catarrhalis, 96-well plate, 37° C., 10 h
# [12] = Aeromonas hydrophila, 96-well plate, 37° C., 10 h
# [13] = Klebsiella pneumonia, 96-well plate, 37° C., 10 h
# [14] = Proteus vulgaris, 96-well plate, 37° C., 10 h
# [15] = Enterobacter cloacae, 96-well plate, 37° C., 10 h
# [16] = Serratia marcescens, 96-well plate, 37° C., 10 h
# [17] = Pseudomonas aeruginosa, 96-well plate, 37° C., 10 h
# [18] = Citrobacter diversus, 96-well plate, 37° C., 10 h
# [19] = Proteus mirabilis, 96-well plate, 37° C., 10 h
# [20] = E. coli BL21, 96-well plate, 37° C., 10 h
substance,measurement,setting,value
PRT847 (CDCSPHGALSIPCNSSGKCQCKVGVIGSICDRCQDGYYGFSKNGCLP; listed as Homo sapiens),MIC,E. coli DH5α,12.5 µg/mL
same,MIC (μg/mL) M. catarrhalis,Moraxella catarrhalis; [1],12.5 µg/mL
same,MIC (μg/mL) A. hydrophila,Aeromonas hydrophila; [2],12.5 µg/mL
same,MIC (μg/mL) K. pneumonia,Klebsiella pneumonia; [3],12.5 µg/mL
same,MIC (μg/mL) P. vulgaris,Proteus vulgaris; [4],12.5 µg/mL
same,MIC (μg/mL) E. cloacae,Enterobacter cloacae; [5],25 µg/mL
same,MIC (μg/mL) S. marcescens,Serratia marcescens; [6],12.5 µg/mL
same,MIC (μg/mL) P. aeruginosa,Pseudomonas aeruginosa; [7],12.5 µg/mL
same,MIC (μg/mL) C. diversus,Citrobacter diversus; [8],25 µg/mL
same,MIC (μg/mL) P. mirabilis,Proteus mirabilis; [9],12.5 µg/mL
same,MIC (μg/mL) E. coli BL21,E. coli BL21; [10],25 µg/mL
PRT528 (CSCNSNGQLGSCHPLTGDCINQEPKDSSPAEECDD; listed as Homo sapiens),MIC,E. coli DH5α,12.5 µg/mL
same,MIC against M. catarrhalis,"Moraxella catarrhalis; 96-well plate, 37° C., 10 h",25 µg/mL
same,MIC against A. hydrophila,"Aeromonas hydrophila; 96-well plate, 37° C., 10 h",25 µg/mL
same,MIC against K. pneumonia,"Klebsiella pneumonia; 96-well plate, 37° C., 10 h",25 µg/mL
same,MIC against P. vulgaris,"Proteus vulgaris; 96-well plate, 37° C., 10 h",25 µg/mL
same,MIC against E. cloacae,"Enterobacter cloacae; 96-well plate, 37° C., 10 h",12.5 µg/mL
same,MIC against S. marcescens,"Serratia marcescens; 96-well plate, 37° C., 10 h",50 µg/mL
same,MIC against P. aeruginosa,"Pseudomonas aeruginosa; 96-well plate, 37° C., 10 h",50 µg/mL
same,MIC against C. diversus,"Citrobacter diversus; 96-well plate, 37° C., 10 h",50 µg/mL
same,MIC against P. mirabilis,"Proteus mirabilis; 96-well plate, 37° C., 10 h",12.5 µg/mL
same,MIC against E. coli BL21,"E. coli BL21; 96-well plate, 37° C., 10 h",25 µg/mL
PRT496 (CSCNNHSDTCDPNTGKCLNCGDNTAGDHCDVCTSGYYGKVTGSASDCAL; listed as Homo sapiens),MIC,E. coli DH5α,12.5 µg/mL
same,MIC against M. catarrhalis,"Moraxella catarrhalis; 96-well plate, 37° C., 10 h",12.5 µg/mL
same,MIC against A. hydrophila,"Aeromonas hydrophila; 96-well plate, 37° C., 10 h",12.5 µg/mL
same,MIC against K. pneumonia,"Klebsiella pneumonia; 96-well plate, 37° C., 10 h",12.5 µg/mL
same,MIC against P. vulgaris,"Proteus vulgaris; 96-well plate, 37° C., 10 h",50 µg/mL
same,MIC against E. cloacae,"Enterobacter cloacae; 96-well plate, 37° C., 10 h",50 µg/mL
same,MIC against S. marcescens,"Serratia marcescens; 96-well plate, 37° C., 10 h",25 µg/mL
same,MIC against P. aeruginosa,"Pseudomonas aeruginosa; 96-well plate, 37° C., 10 h",50 µg/mL
same,MIC against C. diversus,"Citrobacter diversus; 96-well plate, 37° C., 10 h",50 µg/mL
same,MIC against P. mirabilis,"Proteus mirabilis; 96-well plate, 37° C., 10 h",25 µg/mL
same,MIC against E. coli BL21,"E. coli BL21; 96-well plate, 37° C., 10 h",12.5 µg/mL
PRT431 (DIDECRTIPEACRGDMMCVNQNGGYLCIPRTNPVYRGPYSN; listed as Homo sapiens),MIC,E. coli DH5α,50 µg/mL
same,MIC,Moraxella catarrhalis; [1],12.5 µg/mL
same,MIC,Aeromonas hydrophila; [2],12.5 µg/mL
same,MIC,Klebsiella pneumonia; [3],12.5 µg/mL
same,MIC,Proteus vulgaris; [4],25 µg/mL
same,MIC,Enterobacter cloacae; [5],50 µg/mL
same,MIC,Serratia marcescens; [6],12.5 µg/mL
same,MIC,Pseudomonas aeruginosa; [7],50 µg/mL
same,MIC,Citrobacter diversus; [8],50 µg/mL
same,MIC,Proteus mirabilis; [9],50 µg/mL
same,MIC,E. coli BL21; [10],12.5 µg/mL
PRT419 (DIDECALPTGGHICSYRCINIPGSFQCSCPSSGYRLAPNGRNCQ; listed as Homo sapiens),MIC,E. coli DH5α,25 µg/mL
same,MIC,Moraxella catarrhalis; [1],50 µg/mL
same,MIC,Aeromonas hydrophila; [2],12.5 µg/mL
same,MIC,Klebsiella pneumonia; [3],50 µg/mL
same,MIC,Proteus vulgaris; [4],12.5 µg/mL
same,MIC,Enterobacter cloacae; [5],25 µg/mL
same,MIC,Serratia marcescens; [6],25 µg/mL
same,MIC,Pseudomonas aeruginosa; [7],25 µg/mL
same,MIC,Citrobacter diversus; [8],25 µg/mL
same,MIC,Proteus mirabilis; [9],25 µg/mL
same,MIC,E. coli BL21; [10],12.5 µg/mL
PRT41 (CDRPCVNGGRCNPGTGQCVCPAGWVGEQC; listed as Homo sapiens),MIC,E. coli DH5α,25 µg/mL
same,MIC (μg/mL) M. catarrhalis,Moraxella catarrhalis; [11],12.5 µg/mL
same,MIC (μg/mL) A. hydrophila,Aeromonas hydrophila; [12],12.5 µg/mL
same,MIC (μg/mL) K. pneumonia,Klebsiella pneumonia; [13],12.5 µg/mL
same,MIC (μg/mL) P. vulgaris,Proteus vulgaris; [14],12.5 µg/mL
same,MIC (μg/mL) E. cloacae,Enterobacter cloacae; [15],25 µg/mL
same,MIC (μg/mL) S. marcescens,Serratia marcescens; [16],50 µg/mL
same,MIC (μg/mL) P. aeruginosa,Pseudomonas aeruginosa; [17],25 µg/mL
same,MIC (μg/mL) C. diversus,Citrobacter diversus; [18],25 µg/mL
same,MIC (μg/mL) P. mirabilis,Proteus mirabilis; [19],25 µg/mL
same,MIC (μg/mL) E. coli BL21,E. coli BL21; [20],12.5 µg/mL
PRT1232 (IGQQCPNMCSGHGSCDHGICRCDQGYQGTECH; listed as Homo sapiens),MIC,E. coli DH5α,50 µg/mL
same,MIC against M. catarrhalis,Moraxella catarrhalis; [11],12.5 µg/mL
same,MIC against A. hydrophila,Aeromonas hydrophila; [12],50 µg/mL
same,MIC against K. pneumonia,Klebsiella pneumonia; [13],12.5 µg/mL
same,MIC against P. vulgaris,Proteus vulgaris; [14],50 µg/mL
same,MIC against E. cloacae,Enterobacter cloacae; [15],25 µg/mL
same,MIC against S. marcescens,Serratia marcescens; [16],25 µg/mL
same,MIC against P. aeruginosa,Pseudomonas aeruginosa; [17],25 µg/mL
same,MIC against C. diversus,Citrobacter diversus; [18],25 µg/mL
same,MIC against P. mirabilis,Proteus mirabilis; [19],25 µg/mL
same,MIC against E. coli BL21,E. coli BL21; [20],25 µg/mL
